# Measured values as given in patent US20140213502A1, “CHEMICAL MODIFICATION OF APOLIPOPROTEIN MIMETIC PEPTIDES FOR THE PRODUCTION OF THERAPEUTIC AGENTS” (United States Department of Health and Human Services, priority 2011, published 2014).
# Like-named read-outs stand apart in the source and are kept apart here. Bridge positions count the residues as written; N and C are the ends. Square brackets hold non-standard residues; d marks the D form. Ends that are not written are not given here. Peptide text beside a SMILES is read from it. * marks the point of attachment. Myristoyl = CCCCCCCCCCCCCC(=O)*; R8 = C=CCCCCCC[C@@](C)(N)C(=O)O; S5 = C=CCCC[C@](C)(N)C(=O)O
# Key:
# [1] = Helicity by circular dichroism (CD) spectroscopy; format: physicochemical; settings: for helical (helicity by CD spectroscopy): 24° C., aqueous buffer (sodium phosphate pH 7.4), peptide 0.1 mg/mL; for Helicity at 90° C.: heat denaturation, CD spectroscopy
# Description: FIG. 1 depicts the primary sequence and information regarding the biophysical characterization of illustrative peptides discussed herein. […] X1=(R)-a-(7′-octanyl)Ala; X2=(S)-a-(4′ pentenyl)Ala. […] (dotted line) A10, (solid line) S1A10, (dashed line) S2A10.
# FIG. 5 depicts helicity of peptides as measured by CD-spectroscopy at 24° C.: (dotted line) 5A, (dashed line) acyl-5A.
# The helical nature of the peptides was determined by circular dichroism spectroscopy. Peptides (0.1 mg/mL) in sodium phosphate buffer (pH 7.4) were loaded into a quartz cuvette (d=0.2 cm path length) and CD spectra from 185 to 240 nm were recorded on a Jasco J715 spectropolarimeter at 24° C. Data were normalized by calculating the mean residue ellipticity (θ). Peptide thermostability was monitored at 220 nm by increasing temperature from 10° to 90° C.
# [2] = tested on: pepsin; test: Susceptibility to proteolysis by pepsin, loss of intact peptide by MALDI-TOF MS; format: in vitro ADME; settings: for remaining at 24 h, 500 μg/ml: pepsin (isolated protease), pepsin 0.5 μg/ml, pH 2, 37° C., read-out: peptide remaining after digestion
# Description: (§1) FIG. 2 depicts information relating to peptide susceptibility to proteolysis. Peptides […] and […] at a final concentration of 500 μg/ml were incubated for the indicated times with either pepsin (0.5 μg/ml) in 10% acetic acid (pH 2.0) buffer (Panel A) or with chymotrypsin (0.5 μg/ml) in 10 mM NH4HCO3 (pH 7.4) buffer (Panel B), and loss of intact peptide was monitored by MALDI-TOF MS. Results are expressed as normalized area under the curve measurements relative to three internal standards. […] Several potential pepsin and/or chymotrypsin cleavage sites are found within and outside the linker region of the peptides […] and […]. […] and […] (5 mg/ml) were diluted 10× with either 10% acetic acid (pH 2), containing pepsin (0.5 μg/ml final) or in 10 mM NH4HCO3 (pH 7), containing chymotrypsin (0.5 μg/ml final). After incubation at 37° C., aliquots at various time points were removed and dried on a MALDI Anchor Chip target at 45° C. MALDI standards (Bombesin, ACTH 1-17, ACTH 18-39, Somastatin 28, CHCA in 50% ACN, 0.1% TFA) and matrix were added sequentially and allowed to dry between additions. Samples were analyzed on a Bruker AutoFlex III (Bruker Daltonics) in positive ion reflectron mode. Relative protein concentrations were determined from areas under the curve, using the MALDI standards as calibrators.
# [3] = tested on: chymotrypsin; test: Susceptibility to proteolysis by chymotrypsin, loss of intact peptide by MALDI-TOF MS; format: in vitro ADME; settings: for remaining at 24 h, 500 μg/ml: chymotrypsin (isolated protease), read-out: peptide remaining after digestion
# Description: as §1
# [4] = tested on: aortic atherosclerosis; test: Atherosclerosis progression in a mouse model, en face analysis of aorta; format: in vivo; settings: apoE^hypx SR-BI Ko mice, 200 ug/mL in drinking water, high fat (21%) diet 2 weeks
# Description: FIG. 8 depicts the results of testing the peptide […] on atherosclerosis progression in a mouse model of atherosclerosis. To test the ability of the stapled peptide variant of the last helix of apoA-T containing the long linker, […], it was added to the drinking water (200 ug/mL) of apoE^hypx SR-BI Ko mice. The mice were fed a high fat (21%) diet for 2-weeks and examined for aortic atherosclerosis by en face analysis.
# [5] = format: physicochemical
# Description: FIG. 3 depicts Dimyristoyl phosphatidyl choline (DMPC) vesicle solubilization by the indicated peptides. Peptides A10, S1A10 and S2A10 at a final concentration of 33 μg/mL or phosphate buffer saline (PBS) was incubated with DMPC vehicles (200 μg/mL) and monitored for turbidity at 1 min. intervals.
# A phospholipid vesicle solubilization assay was undertaken to assess the ability of the peptides to act like detergents. Dimyristoyl phosphatidyl choline (DMPC) vesicles were prepared by resuspension of dried DMPC with PBS and vortexing for 5 min. Changes in light scattering upon peptide addition were monitored at 24° C. every minute for 1 h at 660 nm, with shaking in a Perkin Elmer plate reader.
# [6] = molecular target: T1, ABCA1 transporter (Homo sapiens, UniProt O95477); test: Cholesterol efflux, BHK cells stably transfected with human ABCA1; format: cell-based; settings: 18 h
# T1 construct: expressed in transfected cells; host or cells: BHK cells
# Description: (§2) FIG. 4 depicts the results of testing the effect of the peptides on cholesterol efflux. Peptides A10, S1A10, S2A10, 5A at the indicated concentration were incubated with (Panel A) BHK control cells, (Panel B) ABC-A1 transfected BHK cells, (Panel C) ABC-G1 transfected BHK cells, and (Panel D) SR-B1 transfected BHK cells and monitored for cholesterol efflux. Percent of cholesterol efflux over 18 h is expressed as mean±SD of triplicate determinations.
# (§3) The ability of the three peptides and the bi-helical 5A peptide to promote cholesterol efflux was tested on BHK cells stably transfected with human ABCA1, ABCG1 or the human SRBI receptor (FIGS. 5 and 6). Cholesterol efflux studies were performed, as described previously. Control BHK cells and BHK cells stably transfected with either human ABCA1, ABCG1 or SR-BI were radiolabeled with [^3H] cholesterol for 24 h, washed and then treated with the indicated concentration of peptides for 18 h. Percent efflux was calculated by subtracting the radioactive counts in blank medium (alpha-minimal essential media plus 10 μg/ml bovine serum albumin) from the radioactive counts in the presence of a peptide and then dividing the result by the sum of the radioactive counts in the medium plus the cell fraction.
# [7] = molecular target: T2, ABCG1 transporter (Homo sapiens, UniProt P45844); test: Cholesterol efflux, ABCG1 transfected BHK cells; format: cell-based; settings: 18 h, no phospholipid reconstitution
# T2 construct: expressed in transfected cells; host or cells: BHK cells
# Description: as §2, §3
# [8] = molecular target: T3, SR-BI receptor (Homo sapiens, UniProt Q8WTV0); test: Cholesterol efflux, SR-BI transfected BHK cells; format: cell-based; settings: 18 h, no phospholipid reconstitution
# T3 construct: expressed in transfected cells; host or cells: BHK cells
# T3 sequence (Q8WTV0 1-552): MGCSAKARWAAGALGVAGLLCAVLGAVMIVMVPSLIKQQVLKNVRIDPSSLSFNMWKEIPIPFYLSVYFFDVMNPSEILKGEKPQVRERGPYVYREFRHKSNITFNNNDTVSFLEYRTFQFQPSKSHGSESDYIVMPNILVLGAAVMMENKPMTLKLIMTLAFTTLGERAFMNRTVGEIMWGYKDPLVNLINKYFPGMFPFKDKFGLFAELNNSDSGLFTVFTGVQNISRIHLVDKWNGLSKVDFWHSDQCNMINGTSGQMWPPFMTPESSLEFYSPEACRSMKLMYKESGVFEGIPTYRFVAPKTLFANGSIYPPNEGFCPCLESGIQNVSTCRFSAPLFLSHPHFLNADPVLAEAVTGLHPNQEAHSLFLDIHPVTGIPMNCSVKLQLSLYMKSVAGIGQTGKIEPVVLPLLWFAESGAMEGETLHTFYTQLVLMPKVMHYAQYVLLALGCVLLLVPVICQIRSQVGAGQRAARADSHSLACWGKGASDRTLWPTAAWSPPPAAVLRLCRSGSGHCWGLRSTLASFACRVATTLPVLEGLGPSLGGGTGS
# Description: as §2, §3
# [9] = cited from earlier work
# [10] = Effect of acyl-5A on serum lipid profile of mice; format: in vivo; settings: CS7BL/6 mice, 30 mg/kg intravenously in saline, relative to baseline
# Description: FIG. 7 depicts the results of testing acyl-5A on scrum lipid values in mice. Acyl-5A was injected intravenously in CS7BL/6 mice (n=4) at a dose of 30 mg/kg in saline, and serum was measured for total cholesterol (Panel A), cholesteryl esters (Panel B), and free cholesterol (Panel C) at the indicated, time points. Mean of results are expressed as % of baseline.
# In FIG. 7, the results of testing the effect of acyl-5A on the serum lipid profile of mice are shown.
# [11] = Oligomer formation in aqueous solution; format: physicochemical
# [12] = chymotrypsin 0.5 μg/ml, 10 mM NH4HCO3 (pH 7), 37° C.
# T1 sequence (O95477 whole entry): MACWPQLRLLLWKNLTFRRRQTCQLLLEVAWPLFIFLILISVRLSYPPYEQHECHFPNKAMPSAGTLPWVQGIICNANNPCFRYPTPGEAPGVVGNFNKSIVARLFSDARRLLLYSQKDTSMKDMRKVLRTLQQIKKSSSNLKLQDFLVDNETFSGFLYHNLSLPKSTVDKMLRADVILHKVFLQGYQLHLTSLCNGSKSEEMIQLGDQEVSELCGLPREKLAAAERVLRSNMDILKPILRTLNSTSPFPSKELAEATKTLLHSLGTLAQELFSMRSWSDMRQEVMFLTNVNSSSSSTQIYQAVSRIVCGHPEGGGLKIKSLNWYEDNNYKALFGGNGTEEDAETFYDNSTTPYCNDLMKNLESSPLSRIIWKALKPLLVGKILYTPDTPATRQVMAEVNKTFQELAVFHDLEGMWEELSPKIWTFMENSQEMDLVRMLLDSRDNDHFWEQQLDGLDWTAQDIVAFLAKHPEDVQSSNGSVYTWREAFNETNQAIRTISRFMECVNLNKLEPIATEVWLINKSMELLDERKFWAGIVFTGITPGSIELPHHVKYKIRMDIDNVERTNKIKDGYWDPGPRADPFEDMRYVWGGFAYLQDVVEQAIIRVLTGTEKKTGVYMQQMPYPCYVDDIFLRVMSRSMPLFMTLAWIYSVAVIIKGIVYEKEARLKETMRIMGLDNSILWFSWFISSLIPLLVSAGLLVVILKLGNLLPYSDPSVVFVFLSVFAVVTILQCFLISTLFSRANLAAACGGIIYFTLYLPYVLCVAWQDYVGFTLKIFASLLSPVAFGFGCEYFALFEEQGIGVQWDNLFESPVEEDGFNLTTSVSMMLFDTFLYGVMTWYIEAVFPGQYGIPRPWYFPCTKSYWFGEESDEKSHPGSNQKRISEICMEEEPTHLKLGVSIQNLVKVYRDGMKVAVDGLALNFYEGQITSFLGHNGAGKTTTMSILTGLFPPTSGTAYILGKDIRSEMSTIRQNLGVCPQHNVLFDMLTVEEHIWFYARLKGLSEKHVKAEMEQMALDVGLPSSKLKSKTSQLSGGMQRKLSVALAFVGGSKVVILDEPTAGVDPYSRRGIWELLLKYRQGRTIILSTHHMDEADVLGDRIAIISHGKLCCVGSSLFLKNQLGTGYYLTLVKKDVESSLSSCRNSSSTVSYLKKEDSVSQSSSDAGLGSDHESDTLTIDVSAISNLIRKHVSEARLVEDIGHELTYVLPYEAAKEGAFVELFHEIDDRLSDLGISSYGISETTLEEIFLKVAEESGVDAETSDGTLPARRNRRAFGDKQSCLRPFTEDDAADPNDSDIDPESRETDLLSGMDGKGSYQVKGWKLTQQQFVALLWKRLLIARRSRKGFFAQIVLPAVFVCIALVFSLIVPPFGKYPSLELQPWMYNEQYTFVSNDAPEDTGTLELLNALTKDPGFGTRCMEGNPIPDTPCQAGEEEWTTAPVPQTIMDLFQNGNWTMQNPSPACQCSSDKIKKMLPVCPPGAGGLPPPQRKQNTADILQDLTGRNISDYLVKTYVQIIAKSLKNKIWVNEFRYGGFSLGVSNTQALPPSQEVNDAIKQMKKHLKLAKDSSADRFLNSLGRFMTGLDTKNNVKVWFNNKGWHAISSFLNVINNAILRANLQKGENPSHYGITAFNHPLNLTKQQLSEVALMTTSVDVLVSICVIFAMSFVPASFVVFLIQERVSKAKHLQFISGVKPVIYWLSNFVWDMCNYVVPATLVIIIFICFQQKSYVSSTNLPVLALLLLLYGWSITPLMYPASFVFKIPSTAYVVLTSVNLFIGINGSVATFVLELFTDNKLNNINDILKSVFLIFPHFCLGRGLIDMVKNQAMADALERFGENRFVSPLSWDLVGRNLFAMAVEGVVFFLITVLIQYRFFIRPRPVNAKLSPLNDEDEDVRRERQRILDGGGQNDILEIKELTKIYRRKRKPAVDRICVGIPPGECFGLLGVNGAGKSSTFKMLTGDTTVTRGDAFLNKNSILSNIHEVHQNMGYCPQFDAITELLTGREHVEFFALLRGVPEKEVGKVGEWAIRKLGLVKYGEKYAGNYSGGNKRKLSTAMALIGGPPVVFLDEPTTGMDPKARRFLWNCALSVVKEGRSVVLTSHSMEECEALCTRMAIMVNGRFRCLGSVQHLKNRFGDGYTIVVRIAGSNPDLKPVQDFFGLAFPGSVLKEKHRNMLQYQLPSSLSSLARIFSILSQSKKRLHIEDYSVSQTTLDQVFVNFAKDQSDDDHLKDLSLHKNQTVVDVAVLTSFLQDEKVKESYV
compound,measurement,setting,value
CC(=O)N[C@H](C(=O)N[C@@H](CC(C)C)C(=O)N[C@@H](CCC(=O)O)C(=O)N[C@@H](CO)C(=O)N[C@@H](Cc1ccccc1)C(=O)N[C@@H](CCCCN)C(=O)N[C@H](C(=O)N[C@@H](CO)C(=O)N[C@]1(C)CCCCCCC=CCCCCCC[C@](C)(C(=O)N[C@@H](CCC(=O)O)C(=O)N[C@@H](CCC(=O)O)C(=O)N[C@@H](Cc2ccc(O)cc2)C(=O)N[C@H](C(=O)N[C@@H](CCCCN)C(=O)N[C@@H](CCCCN)C(=O)N[C@@H](CC(C)C)C(=O)N[C@@H](CC(N)=O)C(=O)N[C@H](C(=O)N[C@@H](CCC(N)=O)C(N)=O)[C@@H](C)O)[C@@H](C)O)NC(=O)[C@H](C)NC(=O)[C@H](CO)NC(=O)[C@H](CC(C)C)NC1=O)C(C)C)C(C)C [S1A10] (Ac-VLESFKVS[R8]LSA[R8]EEYTKKLNTQ-NH2; staple 9-13; N-terminus and C-terminus assumed),helical (helicity by CD spectroscopy),[1],62%
same,Helicity at 90° C.,[1],25%
same,"remaining at 24 h, 500 μg/ml",[2],0.4%
same,"remaining at 24 h, 500 μg/ml",[3]; [12],0.6%
CC(=O)N[C@H](C(=O)N[C@@H](CC(C)C)C(=O)N[C@@H](CCC(=O)O)C(=O)N[C@@H](CO)C(=O)N[C@@H](Cc1ccccc1)C(=O)N[C@@H](CCCCN)C(=O)N[C@H](C(=O)N[C@@H](CO)C(=O)N[C@@]1(C)CCCC=CCCCCCC[C@](C)(C(=O)N[C@H](C(=O)N[C@@H](CCCCN)C(=O)N[C@@H](CCCCN)C(=O)N[C@@H](CC(C)C)C(=O)N[C@@H](CC(N)=O)C(=O)N[C@H](C(=O)N[C@@H](CCC(N)=O)C(N)=O)[C@@H](C)O)[C@@H](C)O)NC(=O)[C@H](CCC(=O)O)NC(=O)[C@H](CCC(=O)O)NC(=O)[C@H](CC(C)C)NC(=O)[C@H](C)NC(=O)[C@H](CO)NC(=O)[C@H](CC(C)C)NC1=O)C(C)C)C(C)C [S2A10] (Ac-VLESFKVS[S5]LSALEE[R8]TKKLNTQ-NH2; staple 9-16; N-terminus and C-terminus assumed),helical (helicity by CD spectroscopy),[1],97%
same,Helicity at 90° C.,[1],48%
same,"remaining at 24 h, 500 μg/ml",[2],12.2%
same,resistance to proteolysis by chymotrypsin (in words),[3]; [12],less sensitive to chymotrypsin than S1A10
same,"remaining at 24 h, 500 μg/ml",[3]; [12],3.8%
same,decrease in % area coverage by atherosclerotic plaques,[4],> 2 fold
"Ac-VLESFKVSFLSALEEYTKKLNTQ-NH2 [A10, reference compound]",helical (helicity by CD spectroscopy),[1],17%
same,Helicity at 90° C.,[1],11%
same,"remaining at 0.5 h, 500 μg/ml","[2]; isolated enzyme pepsin, pH 2",< 5%
same,"remaining at 0.5 h, 500 μg/ml","[3]; isolated enzyme chymotrypsin, pH 7",< 5%
same,"DMPC vesicle solubilization (turbidity, in words)",[5],"some initial solubilization of the DMPC vesicles, but at later time points, the turbidity of the solution increased"
same,cholesterol efflux by the ABCA1 transporter (in words),[6],ineffective
same,cholesterol efflux (in words),[7],ineffective
same,cholesterol efflux (in words),[8],ineffective
apoA-I: the main protein in High Density Lipoprotein (HDL),helical,[9]; associated with lipids,over 80%
same,helical,[9]; lipid-free state,about 20%
myrstic acid GGGDWLKAFYDKVAEKLKEAFPDWAKAAYDKAAEKAKEAA (Myristoyl-GGGDWLKAFYDKVAEKLKEAFPDWAKAAYDKAAEKAKEAA) [acyl-5A],helical (helicity by CD spectroscopy),[1],36.7%
same,increase in serum total cholesterol,[10],approximately 20%
same,increase in serum free cholesterol,[10]; found primarily on HDL,> 2 fold
same,peptides per complex (oligomer),[11],approximately 10 peptides per complex
